According to patent US7375132B2, “Compounds and methods for inhibiting cellular responses to hypoxia” (University of Mississippi, priority 2004, dated 2008):

Columns and labels:
T47D cells [1] = assay: Cell viability by Neutral Red assay under hypoxic conditions; assay type: cell-based, human; details: similar hypoxic conditions
Source text: The data presented in FIGS. 2 and 3 are averages from one representative experiment performed in quadruplicate and the bars represent standard errors. Accordingly, a compound of Formula (I) is shown to have a selective effect on physiological hypoxia-induced HIF-1 activation, relative to “chemical hypoxia”-induced HIF-1. To rule out false positives associated with cytotoxicity, the effects of Formula (I) on cell viability are examined.

[2] = tested on: mitochondrial electron transport pathway; assay: Mitochondrial oxygen consumption (FIG. 9); assay type: biochemical; details: in the presence of glutamate/malate, ADP; increasing amounts of compound
Experimental: FIG. 9 is a graph showing that a compound of formula 1 inhibits the mitochondrial electron transport pathway. Mitochondrial oxygen consumption was measured, in this example, in the presence of glutamate/malate, ADP and increasing amounts of a compound of formula 1.

secreted VEGF protein [3] = assay: Secreted VEGF protein ELISA after 1,10-phenanthroline (chemical hypoxia); assay type: cell-based, human; details: T47D cells pretreated with 1,10-phenanthroline (chemical hypoxia)
Experimental: (§1) Since secreted VEGF protein is the bioactive form, compounds that can reduce the level of secreted VEGF protein represent potential tumor angiogenesis inhibitors. Thus, compounds that can inhibit both hypoxic activation of HIF-1 and hypoxic induction of secreted VEGF protein represent “true” leads that target tumor hypoxia. The effects of compounds of the present invention on hypoxic induction of secreted VEGF protein are examined in T47D cells. Exponentially grown T47D cells were plated at the density of about 30,000 cells/well into 96-well plates. Compound treatment and hypoxic exposure were the same as described. Following incubation, secreted VEGF protein concentrations in the conditioned media are determined by ELISA (R & D Systems) and the data normalized by the number of viable cells. […] Therefore, in addition to its effect on HIF-1, compounds of the present invention have a potential therapeutic application as an agent to inhibit tumor angiogenesis.

HIF-1 [4] = assay: Cell-based HIF-1 luciferase reporter assay (pTK-HRE3-luc), HIF-1 activation by hypoxia; details: Homo sapiens; T47D cells; 1% O2/5% CO2/94% N2, 16 hr; read-out: IC50, inhibition of hypoxia-induced HIF-1 activity
Source text: To identify functional antagonists of HIF-1, the present inventors have established a cell-based reporter assay for inhibitors of HIF-1 in hypoxia responsive human breast carcinoma T47D cells. Breast cancer was chosen as the target for this drug discovery effort, due to the high incidence of this disease and the urgent need to identify chemotherapeutic agents that target tumor hypoxia, the comprehensive knowledge base of breast cancer etiology, and the availability of well-studied human breast carcinoma cell lines as in vitro models. In addition, HIF-1α overexpression is associated with advanced stages of breast cancer and poor prognosis. The activity of HIF-1 is monitored using a luciferase reporter under the control of HRE from the erythropoietin gene (pTK-HRE3-luc). Natural product-rich extracts (dissolved in DMSO) are evaluated for activities that inhibit HIF-1 activation by hypoxia (about: 1% O2/5% CO2/94% N2).
For these studies, exponentially grown T47D cells are transiently transfected with the pTK-HRE3-luc and pGL3-control (Promega) reporters and plated into 96-well plates. […]
About 24 hours after plating, a compound of Formula (I) is added to the transfected T47D cells. […] At the end of incubation, the cells are harvested and both luciferase activities determined using a Luciferase Assay System (Promega). […]

secreted VEGF protein [5] = assay: Secreted VEGF protein ELISA after hypoxic treatment; assay type: cell-based, human; details: concentrations of 1 μM and above; hypoxic treatment of T47D cells
Experimental: as §1

T47D cells [6] = assay: T47D cell survival under hypoxic conditions (FIG. 8); assay type: cell-based, human
HIF-1 [7] = assay: Cell-based HIF-1 luciferase reporter assay, HIF-1 activation by iron chelator 1,10-phenanthroline (chemical hypoxia); design: species or system human; details: T47D cells; 1,10-phenanthroline at 10 μM; compound about 3 μM (FIG. 3)
Experimental: For these studies, exponentially grown T47D cells are transiently transfected with the pTK-HRE3-luc and pGL3-control (Promega) reporters and plated into 96-well plates. The pGL3-control reporter contains a modified reporter (cloned from Photinus pyralis) under the control of a SV40 early promoter and provides low-level, constitutive expression in mammalian cells as internal control.
About 24 hours after plating, a compound of Formula (I) is added to the transfected T47D cells. Following incubation at about 37° C. for about 30 minutes, the cells are exposed to hypoxic conditions (1% O2/5% CO2/94% N2) or chemical hypoxia (iron chelator 1,10-phenanthroline at 10 μM) for 16 hr. At the end of incubation, the cells are harvested and both luciferase activities determined using a Luciferase Assay System (Promega). Luciferase activity from the pTK-HRE3-luc reporter was compared to luciferase activity from the pGL3-control reporter.

HIF-1α protein = assay: Western blot of nuclear HIF-1α protein induced by hypoxia; assay type: cell-based, human; details: T47D cells; hypoxia about 4 hours; nuclear extract Western blot
Experimental: Since the availability of the oxygen-regulated HIF-1α protein determines the biological activity of HIF-1 and hypoxia induces HIF-1α protein, the effect of compounds of the present invention on the induction of HIF-1α protein are examined in T47D cells. Briefly, exponentially grown T47D cells are exposed to a compound of Formula (I) for about 30 minutes. The incubation then continues for about 4 hours under hypoxic conditions. Nuclear extracts are prepared from control and treated cells. The HIF-1αand HIF-1β proteins in the nuclear extract samples are detected by Western blot, using HIF-1αand HIF-1β specific antibodies (Novus Biologicals). […] Significant inhibition of HIF-1α protein is observed at about 100 nM and complete inhibition is observed at about 1 μM. It is reasonable to conclude that the selectivity of the compounds of the present invention towards hypoxia-activated HIF-1 is caused by selective blockade of the hypoxic induction of HIF-1α protein.

`CC1=CC(O)C(C(C)CCC2C(C)C3(C)CCC2(C)O3)CC1` (stereo not drawn) [Formula (I), LAURENDITERPENOL] was tested, and the “effect on T47D cell viability” value (T47D cells [1]) was “marginal decrease”, the “effect on mitochondrial electron transport pathway (oxygen consumption)” value [2] was “inhibits” and the “effect on secreted VEGF protein levels” value (secreted VEGF protein [3]) was “do not affect”. The IC50 (HIF-1 [4]) was ~400 nM, the “decrease in level of secreted VEGF protein” value (secreted VEGF protein [5]) was “about 60%” and the “effect on T47D cell survival” value (T47D cells [6]) was “significantly reduced”. For the same compound, the “effect on iron chelator-induced HIF-1” value (HIF-1 [7]) was “no statistically significant effect”, the “concentration at which complete inhibition of HIF-1α protein is observed” value (HIF-1α protein) was “about 1 μM” and the “concentration at which significant inhibition of HIF-1α protein is observed” value (HIF-1α protein) was “about 100 nM”.
